Results reported in ChEMBL document CHEMBL3352697, “Molecular modeling studies of atorvastatin analogues as HMGR inhibitors using 3D-QSAR, molecular docking and molecular dynamics simulations” (Bioorg Med Chem Lett, 2014).
pIC50: −log10 of the molar value.

Biological target: T1, 3-hydroxy-3-methylglutaryl-coenzyme A reductase (Homo sapiens, UniProt P04035)
T1 sequence (P04035 whole entry): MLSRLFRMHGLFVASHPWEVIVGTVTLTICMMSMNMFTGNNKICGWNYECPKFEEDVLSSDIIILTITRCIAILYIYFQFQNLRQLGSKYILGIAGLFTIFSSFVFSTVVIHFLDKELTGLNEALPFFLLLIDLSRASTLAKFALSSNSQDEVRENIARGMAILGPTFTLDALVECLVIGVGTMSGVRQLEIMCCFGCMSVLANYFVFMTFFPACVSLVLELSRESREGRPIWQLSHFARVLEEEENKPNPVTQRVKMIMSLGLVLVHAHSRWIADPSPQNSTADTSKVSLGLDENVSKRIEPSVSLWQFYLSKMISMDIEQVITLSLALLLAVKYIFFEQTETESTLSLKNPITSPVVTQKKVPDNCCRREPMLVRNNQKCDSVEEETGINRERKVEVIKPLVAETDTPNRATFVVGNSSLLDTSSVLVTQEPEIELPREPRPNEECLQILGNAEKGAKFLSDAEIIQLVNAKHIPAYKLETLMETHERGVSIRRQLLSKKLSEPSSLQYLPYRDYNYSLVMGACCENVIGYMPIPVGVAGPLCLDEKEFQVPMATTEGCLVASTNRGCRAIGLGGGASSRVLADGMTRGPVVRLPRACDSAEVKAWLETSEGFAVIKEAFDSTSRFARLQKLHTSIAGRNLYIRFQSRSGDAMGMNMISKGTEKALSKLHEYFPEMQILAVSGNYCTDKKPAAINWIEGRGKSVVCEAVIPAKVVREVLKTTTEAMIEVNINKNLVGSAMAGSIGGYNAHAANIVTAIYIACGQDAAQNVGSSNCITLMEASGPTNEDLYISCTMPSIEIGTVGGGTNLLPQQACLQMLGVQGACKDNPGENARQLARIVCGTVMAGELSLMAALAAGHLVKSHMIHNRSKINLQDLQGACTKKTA
Assay: Inhibition of HMG-CoA reductase (unknown origin)

pIC50: 8.05
SMILES: CC(C)n1c(/C=C/[C@@H](O)C(F)(F)[C@@H](O)CC(=O)O)c(-c2ccc(F)cc2)c2ccccc21
